Laboratory results taken from patent US8278032B2, “Transporter protein in mammal and utilization of the same” (priority 2005, dated 2012).
Where two headings read alike, the source gives them in different places.

Columns and labels:
hMATE1 = target: T1, hMATE1 (Homo sapiens, UniProt Q96FL8); experiment: Inhibition of RI-labeled TEA uptake in HEK293 cells expressing hMATE1; conditions: for TEA uptake activity percent taking the level with addition of no compound as 100% (% ± S.D.): 50 μM RI-labeled TEA, pH 8.0, HEK293 cells expressing hMATE1; for Inhibition of TEA uptake activity (in words, summary of Table 1): MATE1 expressing HEK293 cells, 50 μM TEA, pH 8.0
T1 sequence (Q96FL8 1-570): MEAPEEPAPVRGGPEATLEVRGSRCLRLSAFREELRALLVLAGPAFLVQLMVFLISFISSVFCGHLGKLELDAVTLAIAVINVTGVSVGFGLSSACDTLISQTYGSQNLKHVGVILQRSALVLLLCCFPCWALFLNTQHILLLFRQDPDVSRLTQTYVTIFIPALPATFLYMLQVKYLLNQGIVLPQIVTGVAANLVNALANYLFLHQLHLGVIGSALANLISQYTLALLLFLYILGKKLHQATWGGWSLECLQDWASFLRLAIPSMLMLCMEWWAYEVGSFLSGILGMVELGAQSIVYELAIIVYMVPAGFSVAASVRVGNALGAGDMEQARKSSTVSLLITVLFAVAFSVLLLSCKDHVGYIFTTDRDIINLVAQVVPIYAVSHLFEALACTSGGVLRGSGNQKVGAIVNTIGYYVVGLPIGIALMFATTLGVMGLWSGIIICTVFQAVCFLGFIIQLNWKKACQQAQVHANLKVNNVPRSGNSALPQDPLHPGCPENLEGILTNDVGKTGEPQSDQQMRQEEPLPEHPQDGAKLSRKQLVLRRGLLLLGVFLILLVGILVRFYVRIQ

mMATE1 = target: T2, mMATE1 (Mus musculus, UniProt Q8K0H1); experiment: Inhibition of RI-labeled TEA uptake in HEK293 cells expressing mMATE1; format: cell-based; conditions: for remaining activity at 5000 µM: compound 5 mM;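 on all read-outs here: transfected HEK293 cells held 5 min at 37 °C before tracer addition, uptake read as radioactivity retained on a 0.45-µm membrane filter, mean ± SD of three to nine experiments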
T2 construct: expressed in transfected cells; host or cells: HEK293
T2 sequence (Q8K0H1 with tags, fused parts or gaps): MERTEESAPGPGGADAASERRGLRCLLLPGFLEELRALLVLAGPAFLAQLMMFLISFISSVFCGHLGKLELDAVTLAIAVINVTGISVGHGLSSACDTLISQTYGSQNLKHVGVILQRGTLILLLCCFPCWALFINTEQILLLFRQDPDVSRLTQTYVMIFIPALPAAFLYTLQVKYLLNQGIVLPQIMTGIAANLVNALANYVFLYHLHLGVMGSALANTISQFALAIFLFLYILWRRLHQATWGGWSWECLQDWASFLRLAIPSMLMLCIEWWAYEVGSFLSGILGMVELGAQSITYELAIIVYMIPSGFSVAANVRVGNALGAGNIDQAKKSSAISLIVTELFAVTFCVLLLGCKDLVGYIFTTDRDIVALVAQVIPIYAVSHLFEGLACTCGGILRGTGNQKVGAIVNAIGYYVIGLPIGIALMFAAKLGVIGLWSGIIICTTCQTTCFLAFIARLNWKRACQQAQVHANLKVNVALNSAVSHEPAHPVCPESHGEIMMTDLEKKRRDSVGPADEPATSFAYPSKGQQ

[1] = 50 μM RI-labeled TEA, pH 8.0, HEK293 cells expressing mMATE1, read-out: TEA uptake activity percent taking the level with addition of no compound as 100% (% ± S.D.)
[2] = compound 0.1 mM, 50 μM RI-labeled TEA, pH 8.0, HEK293 cells expressing mMATE1, read-out: TEA uptake activity percent taking the level with addition of no compound as 100% (% ± S.D.)

NC12CC3CC(CC(C3)C1)C2 [Amantadine]
TEA uptake activity percent taking the level with addition of no compound as 100% (% ± S.D.) (hMATE1; compound 0.1 mM): 75.5 ± 9.8%

C[C@]12CCC(=O)C=C1CC[C@@H]1[C@@H]2CC[C@]2(C)C(=O)CC[C@@H]12 [Androstenedione]
remaining activity at 100 µM (mMATE1; HEK293, pH 8, read-out: TEA uptake activity percent taking the level with addition of no compound as 100% (% ± S.D.)): 8.6 ± 1.7%
TEA uptake activity percent taking the level with addition of no compound as 100% (% ± S.D.) (hMATE1; compound 0.1 mM): 36.6 ± 0.9%

CN1[C@@H]2CC[C@H]1C[C@@H](OC(=O)C(CO)c1ccccc1)C2 (some centres unmarked) [Atropine]
TEA uptake activity percent taking the level with addition of no compound as 100% (% ± S.D.) (hMATE1; compound 0.1 mM): 74.6 ± 5.5%

COc1ccc2cc3[n+](cc2c1OC)CCc1cc2c(cc1-3)OCO2 [Berberin]
TEA uptake activity percent taking the level with addition of no compound as 100% (% ± S.D.) (hMATE1; compound 0.001 mM): 69.2 ± 2.1%
TEA uptake activity percent taking the level with addition of no compound as 100% (% ± S.D.) (hMATE1; compound 0.01 mM): 20.4 ± 2.4%
TEA uptake activity percent taking the level with addition of no compound as 100% (% ± S.D.) (hMATE1; compound 0.1 mM): 4.2 ± 0.9%

CC(C)(c1ccc(O)cc1)c1ccc(O)cc1 [Bisphenol A]
TEA uptake activity percent taking the level with addition of no compound as 100% (% ± S.D.) (hMATE1; compound 0.01 mM): 113.9 ± 2.1%

C[N+](C)(C)CC(O)CC(=O)[O-] (centres unmarked) [Carnitine]
remaining activity at 5000 µM (mMATE1; [1]): 71.2 ± 6.1%
TEA uptake activity percent taking the level with addition of no compound as 100% (% ± S.D.) (hMATE1; compound 5 mM): 104.2 ± 6.4%

CN(C)CCCN1c2ccccc2Sc2ccc(Cl)cc21 [Chlorpromazine]
TEA uptake activity percent taking the level with addition of no compound as 100% (% ± S.D.) (hMATE1; compound 0.1 mM): 12.2 ± 3.6%

C[N+](C)(C)CCO [Choline]
remaining activity at 5000 µM (mMATE1; [1]): 62 ± 8.8%
TEA uptake activity percent taking the level with addition of no compound as 100% (% ± S.D.) (hMATE1; compound 5 mM): 62.7 ± 4.1%

CN/C(=N/CCSCc1nc[nH]c1C)NC#N [Cimetidine]
remaining activity at 10 µM (mMATE1; compound 0.01 mM, 50 μM RI-labeled TEA, pH 8.0, HEK293 cells expressing mMATE1, read-out: TEA uptake activity percent taking the level with addition of no compound as 100% (% ± S.D.)): 29.3 ± 5.2%
remaining activity at 100 µM (mMATE1; [2]): 3.1 ± 5.1%
Inhibition of TEA uptake activity (in words, summary of Table 1) (hMATE1): strongly inhibited
TEA uptake activity percent taking the level with addition of no compound as 100% (% ± S.D.) (hMATE1; compound 0.01 mM): 44.7 ± 7.4%
TEA uptake activity percent taking the level with addition of no compound as 100% (% ± S.D.) (hMATE1; compound 0.1 mM): 9.7 ± 8.7%

N.N.[Cl][Pt][Cl] [Cisplatin]
TEA uptake activity percent taking the level with addition of no compound as 100% (% ± S.D.) (hMATE1; compound 1 mM): 35.6 ± 6.0%

C[C@]12C[C@H](O)[C@H]3[C@@H](CCC4=CC(=O)CC[C@@]43C)[C@@H]1CC[C@@H]2C(=O)CO [Corticosterone]
remaining activity at 100 µM (mMATE1; [2]): 50 ± 2.5%
Inhibition of TEA uptake activity (in words, summary of Table 1) (hMATE1): inhibited
TEA uptake activity percent taking the level with addition of no compound as 100% (% ± S.D.) (hMATE1; compound 0.1 mM): 10.0 ± 6.7%

CC/C(=C(/CC)c1ccc(O)cc1)c1ccc(O)cc1 [Diethylstilbestrol]
TEA uptake activity percent taking the level with addition of no compound as 100% (% ± S.D.) (hMATE1; compound 0.1 mM): 94.9 ± 7.8%

C[C@H]1O[C@@H](O[C@H]2[C@@H](O)C[C@H](O[C@H]3[C@@H](O)C[C@H](O[C@H]4CC[C@@]5(C)[C@H](CC[C@@H]6[C@@H]5C[C@@H](O)[C@]5(C)[C@@H](C7=CC(=O)OC7)CC[C@]65O)C4)O[C@@H]3C)O[C@@H]2C)C[C@H](O)[C@@H]1O [Digoxin]
TEA uptake activity percent taking the level with addition of no compound as 100% (% ± S.D.) (hMATE1; compound 0.001 mM): 102.5 ± 7.3%

O=C(CCCN1CC=C(n2c(=O)[nH]c3ccccc32)CC1)c1ccc(F)cc1 [Droperidol]
TEA uptake activity percent taking the level with addition of no compound as 100% (% ± S.D.) (hMATE1; compound 0.001 mM): 74.1 ± 14.7%

CN(C)C(=N)N=C(N)N [Metformin]
TEA uptake activity percent taking the level with addition of no compound as 100% (% ± S.D.) (hMATE1; compound 0.1 mM): 120.5 ± 9.4%

C[C@@H]1O[C@@H](O[C@H]2C[C@@H](O)[C@]3(CO)[C@H]4[C@H](O)C[C@]5(C)[C@@H](C6=CC(=O)OC6)CC[C@]5(O)[C@@H]4CC[C@]3(O)C2)[C@H](O)[C@H](O)[C@H]1O [Ouabain]
TEA uptake activity percent taking the level with addition of no compound as 100% (% ± S.D.) (hMATE1; compound 0.01 mM): 115.9 ± 6.6%

COc1ccc(Cc2nccc3cc(OC)c(OC)cc23)cc1OC [Papaverine]
TEA uptake activity percent taking the level with addition of no compound as 100% (% ± S.D.) (hMATE1; compound 0.01 mM): 26.8 ± 2.7%

C[n+]1ccc(-c2cc[n+](C)cc2)cc1 [Paraquat]
TEA uptake activity percent taking the level with addition of no compound as 100% (% ± S.D.) (hMATE1; compound 1 mM): 57.2 ± 6.8%
